Reference: patent EP1709964A2, “A method of cosmetic depigmentation care by applying at least one aurone” (ENGELHARD LYON, priority 2005, dated 2006)
Read-outs that look alike come from different tables or passages of the source.

Molecular target: T1, Human tyrosinase (Homo sapiens, UniProt P14679)
T1 construct: Normal human melanocytes (originating from abdominal plasty) are sown in a 24-well plate; endogenous in cells; host or cells: normal human melanocytes from abdominal plasty; donors of light, brown and black phototype
T1 sequence (P14679 19-529): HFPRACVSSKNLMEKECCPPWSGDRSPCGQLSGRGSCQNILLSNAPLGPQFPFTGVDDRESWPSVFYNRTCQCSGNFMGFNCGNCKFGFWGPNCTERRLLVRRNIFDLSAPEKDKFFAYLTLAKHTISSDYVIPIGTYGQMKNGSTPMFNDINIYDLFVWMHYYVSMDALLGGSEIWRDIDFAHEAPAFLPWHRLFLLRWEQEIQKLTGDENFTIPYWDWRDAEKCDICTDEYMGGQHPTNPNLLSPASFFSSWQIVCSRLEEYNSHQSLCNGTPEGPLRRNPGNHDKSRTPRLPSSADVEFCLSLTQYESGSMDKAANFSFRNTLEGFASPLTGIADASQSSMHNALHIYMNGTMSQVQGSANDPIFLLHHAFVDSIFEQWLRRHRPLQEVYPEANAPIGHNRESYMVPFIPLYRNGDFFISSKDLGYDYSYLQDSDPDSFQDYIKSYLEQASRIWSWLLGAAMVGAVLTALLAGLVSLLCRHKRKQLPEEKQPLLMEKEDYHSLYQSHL
Test: Inhibition of human tyrosinase in a monolayer after 24 h application of the actives on normal human melanocytes (MBTH/L-Dopa, OD 490 nm/protein)
Type: cell-based
Conditions: for inhibition at 100 µM / inhibition at 10 µM: read-out: Inhibition of human tyrosinase after application on normal human melanocytes, percentage inhibition; for Inhibition (%): model of Example 15
Procedure: Normal human melanocytes (originating from abdominal plasty) are sown in a 24-well plate at the rate of 80,000 cells per well. They are cultivated up to confluence and the actives are applied for 24 hours in the culture media. After 24 hours, the media are removed and the melanocytes are picked up by mechanical action. An extraction is made by heat shock and the supernatants are then recovered and then incubated with MBTH (Sigma) and L-Dopa (Sigma).
The compound obtained in Example 9b was tested on melanocytes originating from various donors but of light phototypes according to the method described in Example 15. […] Table 6 : Inhibition of tyrosinase by compound 9b on 4 different donors.
The compound obtained in Example 9b is tested on cultures of melanocytes originating from 2 donors of brown phototypes and from one donor of negroid phototype. The method applied is that described in Example 15.
A study is made with molecules known in the literature for their depigmenting activity. These molecules are applied to the model described in Example 15 so as to compare their efficiency with respect to the aurones described above.

| Structure (SMILES) | inhibition at 100 µM (10^-4M, 24 hours) | inhibition at 10 µM (10^-5M, 24 hours) | further results |
| --- | --- | --- | --- |
| COc1cc(OC)c2c(c1)O/C(=C\c1ccc(S(=O)(=O)O)cc1S(=O)(=O)O)C2=O [Example 5f, (Z)-4,6-dimethoxy-2-(2',4'-disulfonatebenzylidene)benzofuran-3(2H)-one] | 9.36% | 2.88% | – |
| COc1cc(OC)c2c(c1)O/C(=C\c1ccco1)C2=O [Example 5m, (Z)-4,6-Dimethoxy-2-[(furan)methylene]benzofuran-3(2H)-one] | 19.5% | 6.4% | – |
| COc1cc(OC)c2c(c1)O/C(=C\c1ccc[nH]1)C2=O [Example 5s, (Z)-4,6-Dimethoxy-2-[(pyrrole)methylene]benzofuran-3(2H)-one] | – | – | inhibition at 10 µM: 0%; inhibition at 100 µM: 13.7% |
| CCc1ccccc1/C=C1\Oc2cc(O)ccc2C1=O [Example 3b, (Z)-2-(2'-Ethyl)Benzylidene-6-Hydroxybenzofuran-3(2H)-one] | 0% | 0% | – |
| COc1cc(OC)c2c(c1)O/C(=C\c1[nH]c(C)cc1C)C2=O [Example 5t, (Z)-4,6-Dimethoxy-2-[(3,5-dimethylpyrrole)methylene]benzofuran-3(2H)-one] | 5.1% | 0% | – |
| COc1cc(OC)c2c(c1)O/C(=C\c1ccc(C)s1)C2=O [Example 5q, (Z)-4,6-Dimethoxy-2-[(5-methylthiophene)methylene]benzofuran-3(2H)-one] | 4.8% | 0% | – |
| COc1cc(OC)c2c(c1)O/C(=C\c1cc(C)c(C)o1)C2=O [Example 5o, (Z)-4,6-Dimethoxy-2-[(4,5-dimethylfuran)methylene]benzofuran-3(2H)-one] | 23.2% | 12.1% | – |
| O=C1/C(=C/c2ccc[nH]2)Oc2cc(O)cc(O)c21 [Example 7s, (Z)-4,6-Dihydroxy-2-[(pyrrole)methylene]benzofuran-3(2H)-one] | – | – | inhibition at 10 µM: 9.1%; inhibition at 100 µM: 22.8% |
| CCc1ccc(/C=C2\Oc3cc(OC)cc(OC)c3C2=O)o1 [Example 5n, (Z)-4,6-Dimethoxy-2-[(5-ethylfuran)methylene]benzofuran-3(2H)-one] | 7.8% | 0% | – |
| O=c1cc(-c2ccc(O)cc2)oc2cc(O)cc(O)c12 [Apigenin, reference compound] | -59.1 ± 23% | -40.8 ± 7.68% | – |
| COc1cc(OC)c2c(c1)O/C(=C\c1cccs1)C2=O [Example 5p, (Z)-4,6-Dimethoxy-2-[(thiophene)methylene]benzofuran-3(2H)-one] | 31.3% | 6.4% | – |
| O=c1cc(-c2ccccc2)oc2cc(O)cc(O)c12 [Chrysin, reference compound] | – | -6.1 ± 22.9% | – |
| O=C1O[C@H]([C@@H](O)CO)C(O)=C1O [VitC, Vitamin C, reference compound] | – | – | Inhibition (%) (0.03%): -5.68%; Inhibition (%) (0.3%): 49.28%; Inhibition (%) (3%): 97.77% |
| CCc1ccc(/C=C2\Oc3cc(OC)cc(OC)c3C2=O)s1 [Example 5r, (Z)-4,6-Dimethoxy-2-[(5-ethylthiophene)methylene]benzofuran-3(2H)-one] | 11.9% | 2.1% | – |
| COc1cc(OC)c2c(c1)O/C(=C\c1ccc(S(=O)(=O)O)cc1)C2=O [Example 5e, (Z)-4,6-dimethoxy-2-(4'-sulfonatebenzylidene)benzofuran-3(2H)-one] | 0% | 1.44% | – |
| CCc1ccc(/C=C2\Oc3cc(O)ccc3C2=O)cc1 [Example 3a, (Z)-2-(4'-Ethyl)Benzylidene-6-Hydroxybenzofuran-3(2H)-one] | 0% | 23.9% | – |

Further lines, with some results ahead:

| inhibition at 100 µM (10^-4M, 24 hours) | inhibition at 10 µM (10^-5M, 24 hours) | Structure (SMILES) | further results |
| --- | --- | --- | --- |
| 13.8% | 0% | CCc1ccc(/C=C2\Oc3cc(O)cc(O)c3C2=O)s1 [Example 7r, (Z)-4,6-Dihydroxy-2-[(5-ethylthiophene)methylene]benzofuran-3(2H)-one] | – |
| 3.37% | 34.9% | O=C1/C(=C/c2ccccc2)Oc2cc(O)cc(O)c21 [Example 7, (Z)-2-Benzylidene-(4,6-dihydroxy) benzofuran-3(2H)-one] | Inhibition of human tyrosinase after application on normal human melanocytes, percentage inhibition (10^-4M, 24 hours): 3.37 ± 4.8%; Inhibition of human tyrosinase after application on normal human melanocytes, percentage inhibition (10^-5M, 24 hours): 34.85 ± 3.04% |
| 0% | 31.9% | CC(C)c1ccc(/C=C2\Oc3cc(O)cc(O)c3C2=O)cc1 [Example 7i] | – |
| 0% | 6.1% | CCc1ccccc1/C=C1\Oc2cc(O)cc(O)c2C1=O [Example 7l] | – |
| 0% | 25.1% | CC(C)(C)c1ccc(/C=C2\Oc3cc(O)cc(O)c3C2=O)cc1 [Example 7k] | – |
| 13.6% | 4.5% | Cc1cc(/C=C2\Oc3cc(O)cc(O)c3C2=O)oc1C [Example 7o, (Z)-4,6-Dihydroxy-2-[(4,5-dimethylfuran)methylene]benzofuran-3(2H)-one] | – |
| 23.6% | 6.4% | O=C1/C(=C/c2ccco2)Oc2cc(O)cc(O)c21 [Example 7m, (Z)-4,6-Dihydroxy-2-[(furan)methylene]benzofuran-3(2H)-one] | – |
| 26.4% | 0% | Cc1cc(C)c(/C=C2\Oc3cc(O)cc(O)c3C2=O)[nH]1 [Example 7t, (Z)-4,6-Dihydroxy-2-[(3,5-dimethylpyrrole)methylene]benzofuran-3(2H)-one] | – |
| 5.43% | 26.9% | CCCc1ccc(/C=C2\Oc3cc(O)cc(O)c3C2=O)cc1 [Example 7h] | – |
| 10.7% | 14.1% | COc1ccc(/C=C2\Oc3cc(O)cc(O)c3C2=O)cc1 [Example 9, (Z)-4,6-Dihydroxy-2-(4-methoxybenzylidene)benzofuran-3(2H)-one] | – |
| 35.2% | 15.3% | O=C1/C(=C/c2cccs2)Oc2cc(O)cc(O)c21 [Example 7p, (Z)-4,6-Dihydroxy-2-[(thiophene)methylene]benzofuran-3(2H)-one] | – |
| 3.92% | 20.2% | COc1cc(/C=C2\Oc3cc(O)cc(O)c3C2=O)ccc1O [Example 9d] | – |
| 12.8% | 4.32% | O=C1/C(=C/c2ccccc2O)Oc2cc(O)cc(O)c21 [Example 9c] | – |
| 28.5% | 13.4% | CCc1ccc(/C=C2\Oc3cc(O)cc(O)c3C2=O)o1 [Example 7n, (Z)-4,6-Dihydroxy-2-[(5-ethylfuran)methylene]benzofuran-3(2H)-one] | – |
| 5.25% | 19.9% | CCOc1ccc(/C=C2\Oc3cc(O)cc(O)c3C2=O)cc1 [Example 9a, (Z)-4,6-Dihydroxy-2-(4'-ethoxybenzylidene)benzofuran-3(2H)-one] | – |
| 0% | 4.83% | O=C1/C(=C/c2ccc(S(=O)(=O)O)cc2)Oc2cc(O)cc(O)c21 [Example 7e] | – |
| 16.4% | 7% | Cc1ccc(/C=C2\Oc3cc(O)cc(O)c3C2=O)s1 [Example 7q, (Z)-4,6-Dihydroxy-2-[(5-methylthiophene)methylene]benzofuran-3(2H)-one] | – |
